Assay results from PMC9564337, “Development of a Neurotensin-Derived ^68Ga-Labeled PET Ligand with High In Vivo Stability for Imaging of NTS1 Receptor-Expressing Tumors” (Cancers, 2022).
Read-outs that look alike come from different tables or passages of the source.

How the values were obtained:
hNTS2R = hNTS2R (Homo sapiens, UniProt O95665); assay: radioligand competition binding with [3H]UR-MK300 at intact HEK293T-hNTS2R cells; details: [3H]UR-MK300 c = 10 nM
Protocol: Two days prior to the experiment, white 96-well plates with clear bottoms (Costar, catalog no. 3610) were treated with poly-D-lysine hydrobromide (Sigma-Aldrich) for 10 min. The wells were washed with H2O and the plates were dried on air at rt overnight. […] After removal of the glutaraldehyde solution, the wells were washed twelve times with H2O and two times with culture medium (150–300 µL). […] On the day of the experiment, the culture medium was carefully removed using a multi-channel pipette (Transferpette S-12, Brand, Wertheim, Germany) and the cells were washed once with Dulbecco’s phosphate-buffered saline (D-PBS) containing Ca^2+ and Mg^2+ (1.8 mM CaCl2, 2.68 mM KCl, 1.47 mM KH2PO4, 3.98 mM MgSO4, 136.9 mM NaCl and 8.06 mM Na2HPO4) (200 μL, rt) followed by the careful pre-filling of the wells with 180 µL (total binding) or 160 µL (unspecific and competition binding) of D-PBS, supplemented with 1% BSA and 100 μg/mL bacitracin (Serva, Heidelberg, Germany) (in the following referred to as binding buffer). To determine total binding, 20 µL of a solution of the radioligand in binding buffer (10-fold concentrated compared to the final concentration) were added. […] To determine the displacing effect of a compound of interest, 20 µL of a solution of the respective compound in binding buffer (10-fold concentrated) and 20 µL of a 10-fold concentrated solution of the radioligand in binding buffer were added. During the incubation period of 2 h at 23 °C, the plates were gently shaken. […] The plates were sealed with a transparent sealing tape (permanent seal for microplates, PerkinElmer, product no. 1450–461) and turned upside down several times to achieve complete mixing. Prior to the measurement of the radioactivity with a MicroBeta2 plate counter (PerkinElmer), the plates were kept in the dark for at least 1 h. All experiments were performed in triplicate.

in vitro = in vitro ADME; details: human; for remaining at 1 h, 100 µM / remaining at 6 h, 100 µM / remaining at 24 h, 100 µM / remaining at 48 h, 100 µM: plasma; for remaining at 1 h, 100 µM: pH 7.4, % Intact Peptide in Plasma after 1 h; for remaining at 6 h, 100 µM: pH 7.4, % Intact Peptide in Plasma after 6 h; for remaining at 24 h, 100 µM: pH 7.4, % Intact Peptide in Plasma after 24 h; for remaining at 48 h, 100 µM: pH 7.4, % Intact Peptide in Plasma after 48 h
Protocol: The concentration of the peptides in plasma/PBS (1:2 v/v) was 80 and 4 μM (recovery determination) or 100 μM (stability tests). Data analysis was based on UV detection at 220 nm (8, 9, 11, 12, 14-18, 21-23, 38-49, and 54-57) or fluorescence detection at 275/305 nm (19 and 20). Reference samples, representing 100% recovery, were prepared in duplicate (8, 9, 11, 14-16, and 19-21) or quadruplicate (12, 17, 18, 22, 23, 38-49, and 54-57). Recovery ratios were obtained by dividing the recovery of the peptide by the recovery of IS for each individual sample (n = 3-5). The obtained recoveries and the recovery ratios are summarized in Table S2, Supplementary Materials. […] Instead, the recovery ratios determined for the previously reported, structurally closely related peptide […] [40] were used for calculating the amount of remaining intact peptide in plasma.

hNTS1R = target: T1, hNTS1R (Homo sapiens, UniProt P30989); assay: radioligand competition binding with [3H]UR-MK300 at intact HT-29 cells
T1 construct: intact HT-29 colon carcinoma cells expressing the hNTS1R; host or cells: HT-29 human colon carcinoma cells
Text: Specific binding data (obtained by subtracting unspecific binding from total binding) were normalized (100% = specifically bound radioligand in the absence of competitor) and plotted over log(concentration of competitor) followed by a four-parameter logistic fit (SigmaPlot 12.5, Systat Software, San José, CA, USA) (note: in the case of 40, the lower curve plateau of the sigmoidal fit was constrained to >0). […] The Ki values from individual experiments were transformed to pKi values, followed by the calculation of mean pKi values ± SD.

[1] = read-out: Ki [nM] NTS2R (converted)
[2] = [3H]UR-MK300 c = 1 nM, HT-29 cells, 23 °C, read-out: Ki [nM] NTS1R (converted)
[3] = read-out: pKi ± SD NTS2R (converted)
[4] = [3H]UR-MK300 c = 1 nM, HT-29 cells, 23 °C, read-out: pKi ± SD NTS1R (converted)

Chain of hNTS2R (O95665 whole entry): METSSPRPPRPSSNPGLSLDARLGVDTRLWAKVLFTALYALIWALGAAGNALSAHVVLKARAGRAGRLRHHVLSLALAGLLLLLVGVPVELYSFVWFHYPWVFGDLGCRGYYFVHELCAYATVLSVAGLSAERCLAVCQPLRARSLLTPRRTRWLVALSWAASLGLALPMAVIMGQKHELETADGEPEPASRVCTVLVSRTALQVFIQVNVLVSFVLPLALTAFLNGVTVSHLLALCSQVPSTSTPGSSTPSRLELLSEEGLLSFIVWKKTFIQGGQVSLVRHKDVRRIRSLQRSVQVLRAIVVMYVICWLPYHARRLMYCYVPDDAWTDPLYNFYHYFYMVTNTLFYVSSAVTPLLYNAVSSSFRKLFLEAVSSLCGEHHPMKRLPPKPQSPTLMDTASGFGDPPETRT
T1 sequence (P30989 whole entry): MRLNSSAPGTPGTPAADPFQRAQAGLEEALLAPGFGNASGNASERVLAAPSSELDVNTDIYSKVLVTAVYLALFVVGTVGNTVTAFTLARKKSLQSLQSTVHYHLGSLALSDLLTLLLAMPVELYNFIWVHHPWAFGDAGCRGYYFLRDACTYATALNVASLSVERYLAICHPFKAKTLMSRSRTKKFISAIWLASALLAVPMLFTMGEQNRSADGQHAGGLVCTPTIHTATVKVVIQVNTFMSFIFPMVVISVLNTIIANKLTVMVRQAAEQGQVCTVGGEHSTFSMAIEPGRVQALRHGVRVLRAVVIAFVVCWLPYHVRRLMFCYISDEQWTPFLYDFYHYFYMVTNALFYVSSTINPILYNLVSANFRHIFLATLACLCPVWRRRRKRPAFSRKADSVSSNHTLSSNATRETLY

CN[C@@H](CCCNC(=N)N)C(=O)N[C@@H](CCCNC(N)=NC(=O)NCCCCNC(=O)CN1CCN(CC(=O)O)CCN(CC(=O)O)CCN(CC(=O)O)CC1)C(=O)N1CCC[C@H]1C(=O)N[C@@H](Cc1ccc(O)cc1)C(=O)N[C@H](C(=O)N[C@@H](CC(C)C)C(=O)O)C(C)(C)C [Compound 19]
pKi ± SD NTS2R (hNTS2R): 7.16 ± 0.18
Ki (hNTS2R; [1]): 73 nM
remaining at 1 h, 100 µM (in vitro): > 99%
remaining at 6 h, 100 µM (in vitro): > 99%
remaining at 24 h, 100 µM (in vitro): 36 ± 1%
remaining at 48 h, 100 µM (in vitro): 4.2 ± 0.6%
NTS1R Selectivity (Ratio Ki (NTS2R)/Ki (NTS1R)) (hNTS1R): 4.6
pKi ± SD NTS1R (hNTS1R; [3H]UR-MK300 c = 1 nM, HT-29 cells, 23 °C): 7.80 ± 0.03
Ki (hNTS1R; [2]): 16 nM

CN[C@@H](CCCNC(=N)N)C(=O)N[C@@H](CCCNC(=N)NC(=O)NCCCCN)C(=O)N1CCC[C@H]1C(=O)N[C@@H](Cc1ccc(O)cc1)C(=O)N[C@H](C(=O)N[C@@H](CC(C)C)C(=O)O)C(C)(C)C [Compound 8]
Ki (hNTS2R; [1]): 22 nM
Ki (hNTS2R; [3]): 20.9 nM
remaining at 1 h, 100 µM (in vitro): > 99%
remaining at 6 h, 100 µM (in vitro): > 99%
remaining at 24 h, 100 µM (in vitro): > 99%
remaining at 48 h, 100 µM (in vitro): > 99%
NTS1R Selectivity (Ratio Ki (NTS2R)/Ki (NTS1R)) (hNTS1R): 4.2
Ki (hNTS1R; [2]): 5.3 nM

CC(C)C[C@H](NC(=O)[C@@H](NC(=O)[C@H](Cc1ccc(O)cc1)NC(=O)[C@@H]1CCCN1C(=O)[C@H](CCCNC(=N)NC(=O)NCCCCNC(=O)CN1CCN(CC(=O)O)CCN(CC(=O)O)CCN(CC(=O)O)CC1)N(C)C(=O)[C@@H](N)CCCNC(=N)N)C(C)(C)C)C(=O)O [Compound 17]
Ki (hNTS2R; [1]): 230 nM
Ki (hNTS2R; [3]): 224 nM
% Intact Peptide in Plasma after 24 h (in vitro; 24 h, 100 µM, pH 7.4): 98 ± 1%
remaining at 1 h, 100 µM (in vitro): 97 ± 1%
remaining at 6 h, 100 µM (in vitro): 99 ± 1%
NTS1R Selectivity (Ratio Ki (NTS2R)/Ki (NTS1R)) (hNTS1R): 6.4
Ki (hNTS1R; [2]): 36 nM

CN[C@@H](CCCNC(=N)N)C(=O)N[C@@H](CCCNC(=N)N)C(=O)N1CCC[C@H]1C(=O)N[C@@H](Cc1ccc(O)cc1)C(=O)N[C@H](C(=O)N[C@@H](CC(C)C)C(=O)O)C1CC1 [Compound 40]
remaining at 1 h, 100 µM (in vitro): 88 ± 1%
remaining at 6 h, 100 µM (in vitro): 58 ± 1%
remaining at 24 h, 100 µM (in vitro): < 1%
remaining at 48 h, 100 µM (in vitro): < 1%
Ki (hNTS1R; [2]): 9.6 nM
Ki (hNTS1R; [4]): 8.91 nM

CN[C@@H](CCCNC(=N)N)C(=O)N[C@@H](CCCNC(=N)NC(=O)NCCCCNC(=O)CN1CCN(CC(=O)O)CCN(CC(=O)O)CCN(CC(=O)O)CC1)C(=O)N1CCC[C@H]1C(=O)N[C@@H](Cc1ccc(O)cc1)C(=O)N[C@H](C(=O)N[C@@H](CC(C)C)C(=O)O)C(C)(C)C [Compound 14]
Ki (hNTS2R; [1]): 79 nM
NTS1R Selectivity (Ratio Ki (NTS2R)/Ki (NTS1R)) (hNTS1R): 2.8
Ki (hNTS1R; [2]): 28 nM
Ki (hNTS1R; [4]): 21.9 nM

CC[C@](C)(NC(=O)[C@H](Cc1ccc(O)cc1)NC(=O)[C@@H]1CCCN1C(=O)[C@H](CCCNC(=N)N)NC(=O)[C@H](CCCNC(=N)N)NC)C(=O)N[C@@H](CC(C)C)C(=O)O [Compound 45]
remaining at 1 h, 100 µM (in vitro): 93 ± 1%
remaining at 6 h, 100 µM (in vitro): 92 ± 1%
remaining at 24 h, 100 µM (in vitro): 86 ± 1%
remaining at 48 h, 100 µM (in vitro): 77 ± 1%
Ki (hNTS1R; [2]): > 1000 nM
Ki (hNTS1R; [4]): > 1000 nM

CN[C@@H](CCCNC(N)=NC(=O)NCCCCN)C(=O)N[C@@H](CCCNC(=N)N)C(=O)N1CCC[C@H]1C(=O)N[C@H](C(=O)N[C@H](C(=O)N[C@@H](CC(C)C)C(=O)O)C(C)(C)C)C(C)(C)c1ccc(O)cc1 [Compound 52]
Ki (hNTS2R; [1]): 6.5 nM
Ki (hNTS2R; [3]): 6.03 nM
NTS1R Selectivity (Ratio Ki (NTS2R)/Ki (NTS1R)) (hNTS1R): 1.2
Ki (hNTS1R; [2]): 5.4 nM
Ki (hNTS1R; [4]): 5.01 nM
